Reference: patent US12318401B2, “Injectable shear-thinning hydrogel containing therapeutic agent for enhanced tumor therapy” (MAYO FOUNDATION FOR MEDICAL EDUCATION AND RESEARCH, priority 2021, dated 2025)

Test system: B16F10 melanoma tumor cells
Experiment: In vivo anti-cancer efficacy in melanoma tumor model
Design: species or system C57B1/6J mice
Details: subcutaneous B16F10 melanoma in mice
Method: Finally, in vivo anti-cancer efficacy of DOX-STB was analyzed in a melanoma tumor model made by subcutaneous injection of B16F10 melanoma tumor cells into C57B1/6J mice (FIG. 7A).

COc1cccc2c1C(=O)c1c(O)c3c(c(O)c1C2=O)C[C@@](O)(C(=O)CO)C[C@@H]3O[C@H]1C[C@H](N)[C@H](O)[C@H](C)O1 [DOX, doxorubicin]
tumor size in gross: tumor size decreased
